# Values quoted from earlier work in US20060110441A1, “Lyophilized liposome formulations and method” (priority 2004, published 2006).
# Settings: hydrated lipid
row,Molecule,"Tm, phase transition temperature [°C]"
1,"CCCCCCCC/C=C\CCCCCCCC(=O)OC[C@H](COP(=O)(O)OCCN)OC(=O)CCCCCCC/C=C\CCCCCCCC [DOPE, dioleoyl phosphoethanolamine]",−16
2,"CCCCCCCC/C=C\CCCCCCCC(=O)OC[C@H](COP(=O)(O)OCC(O)CO)OC(=O)CCCCCCC/C=C\CCCCCCCC (some centres unmarked) [DOPG, dioleoyl phosphatidylglycerol]",−18
3,"CCCCCCCCCCCCCCCCCC(=O)OC[C@H](COP(=O)([O-])OCC[N+](C)(C)C)OC(=O)CCCCCCCCCCCCCCCCC [DSPC, distearoyl phosphatidylcholine]",55
4,"CCCCCCCC/C=C\CCCCCCCC(=O)O[C@H](COC(=O)CCCCCCCCCCCCCCC)COP(=O)([O-])OCC[N+](C)(C)C [POPC, palmitoyloleoyl phosphatidylcholine]",−2
5,CCCCC/C=C\C/C=C\CCCCCCCC(=O)OC[C@H](COP(=O)(O)OCCN)OC(=O)CCCCCCC/C=C\C/C=C\CCCCC [dilinoleoyl phosphoethanolamine],−40
6,CCCCCCCC/C=C\CCCCCCCC(=O)OC[C@H](COP(=O)(O)O)OC(=O)CCCCCCC/C=C\CCCCCCCC [dioleoyl PA],−8
7,CCCCCCCC/C=C\CCCCCCCC(=O)OC[C@H](COP(=O)(O)OC[C@H](N)C(=O)O)OC(=O)CCCCCCC/C=C\CCCCCCCC [dioleoyl PS],−11
8,CCCCCCCCCCCCCCCCCC(=O)OC[C@H](COP(=O)(O)O)OC(=O)CCCCCCCCCCCCCCCCC [distereoyl PA],75
9,CCCCCCCCCCCCCCCCCC(=O)OC[C@H](COP(=O)(O)OCC(O)CO)OC(=O)CCCCCCCCCCCCCCCCC (some centres unmarked) [distereoyl PG],55
10,CCCCCCCCCCCCCCCCCC(=O)OC[C@H](COP(=O)(O)OC[C@H](N)C(=O)O)OC(=O)CCCCCCCCCCCCCCCCC [distereoyl PS],68
11,CCCCCCCCCCCCCCCCCC(=O)OC[C@H](COP(=O)(O)OCCN)OC(=O)CCCCCCCCCCCCCCCCC [disteroyl phosphoethanolamine],74
12,"CCCCCCCC/C=C\CCCCCCCC(=O)OC[C@H](COP(=O)([O-])OCC[N+](C)(C)C)OC(=O)CCCCCCCCCCCCCCC [oleoyl palmitoyl PC, oleolyl palmitoyl phosphatidylcholine]",−9
13,"CCCCCCCC/C=C\CCCCCCCC(=O)OC[C@H](COP(=O)([O-])OCC[N+](C)(C)C)OC(=O)CCCCCCCCCCCCCCCCC [oleoyl stearyol PC, oleoyl stearoyl phosphatidylcholine]",5 to 13
14,"CCCCCCCC/C=C\CCCCCCCC(=O)O[C@H](COC(=O)CCCCCCCCCCCCCCCCC)COP(=O)([O-])OCC[N+](C)(C)C [stearyol oleoyl PC, stearyoyl oleoyl phosphatidylcholine]",8 to 13
15,palmitoyl docosahexaenoyl PC,−27

# Same assay, conditions: hydrated lipid; listed as palmitoyl oleoyl PC
row,"Tm, phase transition temperature [°C]",Molecule
1,−5 to 3,"CCCCCCCC/C=C\CCCCCCCC(=O)O[C@H](COC(=O)CCCCCCCCCCCCCCC)COP(=O)([O-])OCC[N+](C)(C)C [POPC, palmitoyloleoyl phosphatidylcholine]"

# Settings: not given
water solubility (in words),Molecule,aqueous solubility [µg/mL]
very low water solubility,"Nc1nc(Nc2ccc(S(N)(=O)=O)cc2)nn1C(=O)c1c(F)cccc1F [1-(2′,6′-difluorobenzoyl)-5-amino-3-(4′-aminosulfonylanilino)-1,2,4-triazole]",–
–,"COc1cc([C@@H]2c3cc4c(cc3[C@@H](O[C@@H]3O[C@@H]5CO[C@@H](C)O[C@H]5[C@H](O)[C@H]3O)[C@H]3COC(=O)[C@H]23)OCO4)cc(OC)c1O [etopside, reference compound]",30

# Settings: not given
# Remark: another data set of the same source
row,Molecule,LogP
1,CCC/C=C/C=C/C(=O)O[C@H]1/C(=C/C(=O)OC)C[C@H]2C[C@H]([C@@H](C)O)OC(=O)C[C@H](O)C[C@@H]3C[C@H](OC(C)=O)C(C)(C)[C@](O)(C[C@@H]4C/C(=C/C(=O)OC)C[C@H](/C=C/C(C)(C)[C@]1(O)O2)O4)O3 [bryostatin-1],5.4
2,O=c1[nH]cc(F)c(=O)[nH]1 [fluorouracil],−0.8

# The next lines start with the values.
row,LogP,Molecule
1,around zero,"Nc1nc(Nc2ccc(S(N)(=O)=O)cc2)nn1C(=O)c1c(F)cccc1F [1-(2′,6′-difluorobenzoyl)-5-amino-3-(4′-aminosulfonylanilino)-1,2,4-triazole]"
2,1.9,C[C@H]1C[C@H]2[C@@H]3CCC4=CC(=O)C=C[C@]4(C)[C@@]3(F)[C@@H](O)C[C@]2(C)[C@@]1(O)C(=O)CO [betamethasone]
3,6.1,CN(C)CC/C=C1/c2ccccc2Sc2ccc(Cl)cc21 [chlorprothixene]
4,1.8,C[C@]12C[C@H](O)[C@H]3[C@@H](CCC4=CC(=O)CC[C@@]43C)[C@@H]1CC[C@@H]2C(=O)CO [corticosterone]
5,6.6,CC(=O)O[C@@]12CO[C@@H]1C[C@H](O)[C@@]1(C)C(=O)[C@H](O)C3=C(C)[C@@H](OC(=O)[C@H](O)[C@@H](NC(=O)OC(C)(C)C)c4ccccc4)C[C@@](O)([C@@H](OC(=O)c4ccccc4)[C@H]21)C3(C)C [docetaxel]
6,7.4,CC(=O)O[C@H]1C(=O)[C@@]2(C)[C@H]([C@H](OC(=O)c3ccccc3)[C@]3(O)C[C@H](OC(=O)[C@H](O)[C@@H](NC(=O)c4ccccc4)c4ccccc4)C(C)=C1C3(C)C)[C@]1(OC(C)=O)CO[C@@H]1C[C@@H]2O [paclitaxel]
